Patent US12161634B2, “Pyruvate kinase R (PKR) activating compositions” (Novo Nordisk Health Care AG, priority 2020, dated 2024)

Test: Dynamic vapor sorption (DVS)
Assay type: physicochemical
Settings: for hygroscopicity: DVS at RT; for water uptake from 60% RH to 80% RH / water uptake up to 60% RH: DVS; for water uptake from 60% RH to 80% RH / water uptake up to 60% RH / form change before and after DVS test: RT; for water uptake up to 60% RH: up to 60% RH (ambient condition); for form change before and after DVS test: determined by XRPD
Procedure: Dynamic Vapor Sorption (DVS) was measured with a Surface Measurement System (SMS) DVS Intrinsic.

Compound | hygroscopicity | water uptake from 60% RH to 80% RH [%] | water uptake up to 60% RH [%] | form change before and after DVS test
O=C([C@H](CO)c1ccccc1)N1CC2=C(C1)CN(S(=O)(=O)c1cnc3c(c1)OCCO3)C2 [Type B, (S)-1-(5-[2H,3H-[1,4]dioxino[2,3-b]pyridine-7-sulfonyl]-1H,2H,3H,4H,5H,6H-pyrrolo[3,4-c]pyrrol-2-yl)-3-hydroxy-2-phenylpropan-1-one] | hygroscopic | 0.4 | 2.9 | No form change
O=C([C@H](CO)c1ccccc1)N1CC2=C(C1)CN(S(=O)(=O)c1cnc3c(c1)OCCO3)C2 [Type C, (S)-1-(5-[2H,3H-[1,4]dioxino[2,3-b]pyridine-7-sulfonyl]-1H,2H,3H,4H,5H,6H-pyrrolo[3,4-c]pyrrol-2-yl)-3-hydroxy-2-phenylpropan-1-one] | hygroscopic | 0.5 | 1.8 | No form change
